Measurements reported in patent US12116422B2, “Stapled peptide and use thereof in preparation of drug for treating pancreatic cancer” (Ruijin Hospital, Shanghai Jiao Tong University School of …, priority 2022, dated 2024).
“Also recorded” adds a separate entry of the source. Read-outs that look alike come from different tables or passages of the source. Blank lines part the entries; values can stand above or below the compound they belong to. Where a SMILES comes first, the peptide text is derived from it. Bridges are numbered along the chain shown (N, C = ends). Where no end group is shown, it is not given here. [ ]: non-standard residue; d: D form. R5 = C=CCCC[C@@](C)(N)C(=O)O

Assays:
ANK domain of N1ICD [1] = molecular target: T1, ANK domain of N1ICD (Homo sapiens, UniProt P46531); experiment: KD (M)
From the text: Table printed on a drawing sheet, FIG. 1C
(§1) Head of the field: KD (M)
First copying reader's note: Brackets drawn over the sequences join the two S5 residues of each staple; the SAH-mAH2-5 row is printed in lighter (highlighted) type.
Target sequence in this assay (P46531 19-2555 limits assumed): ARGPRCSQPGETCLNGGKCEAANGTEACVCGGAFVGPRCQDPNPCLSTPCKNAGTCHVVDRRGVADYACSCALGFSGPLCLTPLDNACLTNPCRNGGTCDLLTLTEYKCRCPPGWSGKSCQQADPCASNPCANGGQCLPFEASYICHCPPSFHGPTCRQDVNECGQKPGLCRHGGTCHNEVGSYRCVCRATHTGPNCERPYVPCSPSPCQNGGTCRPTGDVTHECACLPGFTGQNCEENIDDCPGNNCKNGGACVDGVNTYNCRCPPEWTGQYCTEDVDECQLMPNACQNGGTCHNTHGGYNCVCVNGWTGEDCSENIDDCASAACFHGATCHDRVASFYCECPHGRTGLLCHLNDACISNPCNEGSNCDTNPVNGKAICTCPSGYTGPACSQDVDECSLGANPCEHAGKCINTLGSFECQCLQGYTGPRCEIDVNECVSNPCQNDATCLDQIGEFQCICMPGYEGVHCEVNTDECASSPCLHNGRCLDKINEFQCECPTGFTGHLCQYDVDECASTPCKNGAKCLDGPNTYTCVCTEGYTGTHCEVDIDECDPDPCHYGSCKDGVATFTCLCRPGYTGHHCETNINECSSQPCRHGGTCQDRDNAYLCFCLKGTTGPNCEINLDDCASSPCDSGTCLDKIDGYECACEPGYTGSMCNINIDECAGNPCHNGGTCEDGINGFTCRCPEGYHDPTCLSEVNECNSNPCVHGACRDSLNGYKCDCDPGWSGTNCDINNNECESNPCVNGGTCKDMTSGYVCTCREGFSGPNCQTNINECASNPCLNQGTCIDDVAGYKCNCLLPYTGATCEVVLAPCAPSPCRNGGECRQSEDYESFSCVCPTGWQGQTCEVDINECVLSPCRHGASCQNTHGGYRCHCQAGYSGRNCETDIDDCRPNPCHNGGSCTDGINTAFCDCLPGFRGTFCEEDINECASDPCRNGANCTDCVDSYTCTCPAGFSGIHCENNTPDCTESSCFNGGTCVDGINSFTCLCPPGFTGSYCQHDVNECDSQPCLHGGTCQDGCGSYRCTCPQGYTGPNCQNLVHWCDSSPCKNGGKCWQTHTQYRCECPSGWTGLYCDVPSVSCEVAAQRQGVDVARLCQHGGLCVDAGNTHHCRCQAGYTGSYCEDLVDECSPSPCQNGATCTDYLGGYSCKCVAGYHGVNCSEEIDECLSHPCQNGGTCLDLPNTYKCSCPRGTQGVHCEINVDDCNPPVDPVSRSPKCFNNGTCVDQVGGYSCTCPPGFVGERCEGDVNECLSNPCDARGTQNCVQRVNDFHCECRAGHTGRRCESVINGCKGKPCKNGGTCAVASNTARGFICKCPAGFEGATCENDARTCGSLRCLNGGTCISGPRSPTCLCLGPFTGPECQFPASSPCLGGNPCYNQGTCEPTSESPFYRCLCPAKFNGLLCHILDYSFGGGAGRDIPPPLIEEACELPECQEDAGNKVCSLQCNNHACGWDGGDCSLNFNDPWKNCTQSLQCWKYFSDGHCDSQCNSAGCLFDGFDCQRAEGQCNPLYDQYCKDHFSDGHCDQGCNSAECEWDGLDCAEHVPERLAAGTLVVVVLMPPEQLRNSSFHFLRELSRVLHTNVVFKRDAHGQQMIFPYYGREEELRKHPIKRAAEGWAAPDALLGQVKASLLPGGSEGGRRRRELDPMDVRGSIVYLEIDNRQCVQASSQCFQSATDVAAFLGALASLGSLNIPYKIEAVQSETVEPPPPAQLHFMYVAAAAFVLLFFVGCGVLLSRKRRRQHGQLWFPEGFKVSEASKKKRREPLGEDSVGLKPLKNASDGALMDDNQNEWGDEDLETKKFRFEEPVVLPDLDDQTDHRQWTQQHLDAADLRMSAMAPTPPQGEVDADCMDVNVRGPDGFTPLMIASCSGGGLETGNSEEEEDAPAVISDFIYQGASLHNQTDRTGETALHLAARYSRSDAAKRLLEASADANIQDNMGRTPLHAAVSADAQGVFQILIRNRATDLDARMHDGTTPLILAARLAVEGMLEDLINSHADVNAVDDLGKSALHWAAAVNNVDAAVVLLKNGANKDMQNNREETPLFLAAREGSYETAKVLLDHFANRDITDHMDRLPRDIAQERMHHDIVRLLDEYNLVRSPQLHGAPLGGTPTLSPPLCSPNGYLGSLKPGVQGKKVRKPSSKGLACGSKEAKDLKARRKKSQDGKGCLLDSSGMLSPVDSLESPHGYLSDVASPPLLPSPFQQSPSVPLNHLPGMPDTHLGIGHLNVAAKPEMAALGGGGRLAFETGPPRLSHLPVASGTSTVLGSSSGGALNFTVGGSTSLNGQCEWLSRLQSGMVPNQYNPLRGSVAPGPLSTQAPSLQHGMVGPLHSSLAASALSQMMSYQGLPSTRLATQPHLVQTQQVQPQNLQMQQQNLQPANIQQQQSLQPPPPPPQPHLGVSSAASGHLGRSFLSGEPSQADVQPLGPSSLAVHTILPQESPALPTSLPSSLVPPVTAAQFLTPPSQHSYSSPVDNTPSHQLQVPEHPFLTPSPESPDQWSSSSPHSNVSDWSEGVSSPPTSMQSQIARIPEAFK

PDOX model of PDAC = experiment: PDO xenograft (PDOX) models in nude mice, tumor volume and survival; type: in vivo, Nude BALB/c mice; details: high USP10 and N1ICD expression; 1/2/3/4/5 mg/kg intravenously weekly
Description: All animal experimental procedures met institutional ethical requirements and were approved by the Animal Use and Care Committee of Shanghai Jiaotong University School of Medicine. Nude BALB/c mice (male, 4 to 6 weeks old) were purchased from the Chinese Academy of Sciences (Shanghai, China) and kept in a specific pathogen-free facility. For a subcutaneously-injected tumor model, the pancreatic cancer patient-derived organoids (5×10^6 cells/site) were injected subcutaneously into the right side of each mouse. From the first injection, a tumor volume was measured every 7 d using the formula: tumor volume (mm^3)=½(a×b^2), where “a” represented the longest longitudinal diameter and “b” represented the longest transverse diameter.
To evaluate the efficacy of SAH-mAH2-5 in vivo, Capan1 cells (1×10^7 cells/site) and four organoids (5×10^6 cells/site) were subcutaneously injected. One week after inoculation, SAH-CTRL/SAH-mAH2-5 (1/2/3/4/5 mg/kg) and GEM (50 mg/kg) were intravenously injected weekly at the indicated concentrations. Within 35 d from the first injection, the tumor volume was measured every 7 d, and the formula was: tumor volume (mm^3)=½(a×b^2). […]

[2] = Incubation with mouse plasma; type: in vitro ADME
Description: (§2) To examine the physicochemical stability of SAH-mAH2-5, mAH2, Pep2-mAH2, and SAH-mAH2-5 were incubated with proteinase K, pepsin, and mouse plasma.

[3] = system: pancreatic cancer patient-derived organoids; experiment: Growth of pancreatic cancer patient-derived organoids (PDOs); type: cell-based, human
From the text: Four pancreatic cancer tissues were obtained from Ruijin Hospital Affiliated to Shanghai Jiaotong University School of Medicine for organoid culture. All enrolled patients met the following criteria: (i) pathologically diagnosed with pancreatic cancer; (ii) with relatively complete clinicopathological and follow-up data; (iii) without preoperative chemotherapy. Written informed consent was obtained from all relevant patients for the trial, and the study protocol was approved by the Ethics Committee of Ruijin Hospital.
Establishment of patient-derived pancreatic cancer organoids: the normal pancreatic tissues were excised, remaining pancreatic cancer tissues were minced, and enzymatically digested with collagenase (1 mg/ml to 2 mg/ml; Sigma-Aldrich, C9407) in a water bath at 37° C. for 1 h to 2 h. A resulting suspension was filtered through a 100 μm filter to retain tissue debris. The tissue debris was centrifuged at 530 g for 5 min to obtain organoid fractions and resuspended in an RPMI 1640 medium; a resulting suspension was mixed with a cold Matrigel (BD Biocoat, 356234, 10 mg/ml) and then solidified on a pre-warmed 24-well suspension plate at 37° C. for 20 min. After complete gelation, […] of an organoid medium was added to each well, and the plate was transferred to a 37° C./5% humidified CO2 incubator with 2% or ambient O2. […]

proteinase K, pepsin = experiment: Incubation with proteinase K and pepsin; type: in vitro ADME
Description: as §2

ANK domain of N1ICD [4] = molecular target: T1, ANK domain of N1ICD; experiment: SPR binding to the ANK domain
Description: (§3) Surface plasmon resonance (SPR) analysis was conducted with a BlAcore T200 instrument (GE Healthcare, Pittsburgh, USA) to analyze the binding kinetics between N1DARP or SAH-mAH2-5 and a monitor peptide. Dissociation constants (KD) were calculated according to BIA evaluation software.
(§4) A tertiary structure simulating the N1DARP was analyzed online using I-TASSAR, a hierarchical server for protein structure prediction, and two α-helical peptides (AH1 and AH2) were identified (FIG. 1A, left side). […] Furthermore, in order to identify the essential amino acids that mediated the interaction between mAH2 and ANK, amino acid substitutions were conducted for each amino acid of mAH2 substituted with Ala, which were then subjected to SPR analysis. […] Based on the above evidence, mAH2 was then further modified by inserting molecular staples at 5 positions and denoted as stapled α-helices (SAHs).
Target sequence in this assay (P46531 1872-2126 limits assumed): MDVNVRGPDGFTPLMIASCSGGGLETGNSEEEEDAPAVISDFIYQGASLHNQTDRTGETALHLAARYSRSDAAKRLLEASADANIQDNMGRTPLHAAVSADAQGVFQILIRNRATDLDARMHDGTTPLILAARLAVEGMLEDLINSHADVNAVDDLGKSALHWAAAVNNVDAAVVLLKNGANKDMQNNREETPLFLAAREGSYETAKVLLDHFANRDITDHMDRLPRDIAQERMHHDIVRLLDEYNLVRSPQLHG

N1ICD = experiment: Western blot of N1ICD expression, stability and ubiquitination in Capan1 cells; type: cell-based
From the text: (§5) The pancreatic cancer cell line Capan1 was purchased from the Cell Bank of the Chinese Academy of Sciences. The cells were STR-identified, negative for mycoplasma, and cultured in the RPMI 1640 supplemented with 10% fetal bovine serum and antibiotics.
(§6) A RIPA buffer was mixed with a cocktail of proteases and phosphatase inhibitors for lysing cell samples. Proteins were separated by 10% SDS-PAGE and transferred to a PVDF membrane. The images were generated by a Tanon 5200 chemiluminescence imaging system (Shanghai Tanon Life Science Instrument Co., Ltd.). The corresponding proteins were detected with primary antibodies and appropriate secondary antibodies. The primary antibodies were as follows: anti-USP10 (CST, #8501, 1:1000 for WB, 1:200 for IP), anti-β-actin (CST, #3700, 1:1000 for WB), and anti-N1ICD (CST, #4147, 1:1000 for WB, 1:200 for IP).
(§7) Immunoprecipitation analysis: pancreatic cancer cells transfected with indicated plasmid or lentivirus were collected and lysed for 10 min on ice. A resulting lysate was centrifuged to obtain a supernatant, which was then incubated with appropriate antibodies and protein A/G+agarose (Santa Cruz Biotechnology) overnight at 4° C. A resulting immune complex was washed 4 to 6 times and boiled in a 2×SDS sample buffer for 5 min. A resulting product was separated and co-precipitated using SDS-PAGE and blotted with specific antibodies. A resulting binding protein was dissolved in the SDS sample buffer and analyzed by immunoblotting.

USP10-N1ICD interaction = molecular target: T2, USP10-N1ICD interaction (Homo sapiens, UniProt P46531); experiment: Immunoprecipitation/Western blot of the USP10-N1ICD interaction in Capan1 cells; type: cell-based
T2 construct: endogenous in cells; host or cells: Capan1
From the text: as §5, §6
as §7, with “A resulting product was separated and co-precipitated using SDS-PAGE and blotted with specific antibodies.” left out

[5] = In vivo safety in healthy mice (serum biochemistry, HE staining); details: 2 mg/kg intravenously weekly for 4 weeks
Description: To roughly assess the toxicity of SAH-mAH2-5, healthy BALB/c nude mice (5 weeks) were intravenously injected with SAH-CTRL or SAH-mAH2-5 (2 mg/kg) weekly for 4 weeks. The mice were sacrificed, and organs such as pancreas, lung, spleen, kidney, liver, and colon were extracted, which were then subjected to HE staining to screen morphological abnormalities. In addition, serum was collected for biochemical analysis of alanine aminotransferase (ALT), aspartate aminotransferase (AST), blood urea nitrogen (BUN), and creatinine (CR) by a chemical analyzer TBA-40FR (Toshiba Medical Systems, Japan).

ANK1 = experiment: SPR binding to the α-helical regions ANK1 to ANK6
Description: as §3, §4

ANK domain of N1ICD [6] = molecular target: T1, ANK domain of N1ICD; experiment: KD (M); remark: listed apart in the source
From the text: Table printed on a drawing sheet, FIG. 1D
as §1
Target sequence in this assay (P46531 19-2555 limits assumed): as the sequence (P46531 19-2555 limits assumed) above
First copying reader's note: Alanine scan of mAH2; the substituted A is printed in lighter type, and the rows mAH2-7, mAH2-9 and mAH2-14 are highlighted in lighter type.
Where the first naming reader finds the target: passage: A tertiary structure of the ANK domain of N1ICD was obtained from a PDB database

T2 sequence (P46531 1754-2555 limits assumed): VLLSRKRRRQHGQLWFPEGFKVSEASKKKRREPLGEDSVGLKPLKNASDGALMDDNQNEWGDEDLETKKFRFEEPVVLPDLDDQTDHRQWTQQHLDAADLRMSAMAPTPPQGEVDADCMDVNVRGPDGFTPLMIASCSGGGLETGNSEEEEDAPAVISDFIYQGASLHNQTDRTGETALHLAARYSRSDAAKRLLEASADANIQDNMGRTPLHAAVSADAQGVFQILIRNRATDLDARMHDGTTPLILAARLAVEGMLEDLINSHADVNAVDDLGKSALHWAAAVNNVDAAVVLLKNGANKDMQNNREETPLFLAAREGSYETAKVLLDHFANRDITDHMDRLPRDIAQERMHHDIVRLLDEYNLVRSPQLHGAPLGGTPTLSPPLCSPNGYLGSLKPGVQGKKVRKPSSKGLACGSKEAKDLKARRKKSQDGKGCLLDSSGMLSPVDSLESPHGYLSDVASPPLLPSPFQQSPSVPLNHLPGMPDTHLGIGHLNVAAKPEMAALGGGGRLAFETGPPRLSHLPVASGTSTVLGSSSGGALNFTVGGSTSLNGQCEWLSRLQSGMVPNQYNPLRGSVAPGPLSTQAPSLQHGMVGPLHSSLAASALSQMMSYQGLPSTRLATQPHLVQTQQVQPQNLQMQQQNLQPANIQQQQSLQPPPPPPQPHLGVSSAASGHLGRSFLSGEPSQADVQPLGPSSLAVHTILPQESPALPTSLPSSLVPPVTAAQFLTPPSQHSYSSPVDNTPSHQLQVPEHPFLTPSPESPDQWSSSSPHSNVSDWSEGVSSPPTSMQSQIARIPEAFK

- Kd (ANK domain of N1ICD [1]): 1.05 nM
Compound: CC[C@H](C)[C@H](NC(=O)[C@H](CCCNC(=N)N)NC(=O)[C@H](CCCCN)NC(=O)[C@H](C)NC(=O)[C@@H](N)Cc1ccc(O)cc1)C(=O)N[C@]1(C)CCC/C=C\CCC[C@](C)(C(=O)N[C@@H](CO)C(=O)N[C@@H](CCCCN)C(=O)N[C@@H](CCC(N)=O)C(=O)N[C@@H](CC(C)C)C(=O)O)NC(=O)[C@H](CC(C)C)NC(=O)[C@H](CCC(N)=O)NC(=O)[C@H](Cc2ccc(O)cc2)NC1=O [SAH-mAH2-3] (H-YAKRI[R5]YQL[R5]SKQL-OH; staple (Z) 6-10)

Compound: CC[C@H](C)[C@H](NC(=O)[C@H](CCCNC(=N)N)NC(=O)[C@H](CCCCN)NC(=O)[C@H](C)NC(=O)[C@@H](N)Cc1ccc(O)cc1)C(=O)N[C@]1(C)CCC/C=C/CCC[C@](C)(C(=O)N[C@@H](CC(C)C)C(=O)O)NC(=O)[C@H](CCCCN)NC(=O)[C@H](CO)NC(=O)[C@H](CC(C)C)NC(=O)[C@H](CC(C)C)NC(=O)[C@H](CCC(N)=O)NC(=O)[C@H](Cc2ccc(O)cc2)NC1=O [SAH-mAH2-5, stapled α-helix-modified α-helix 2-5] (H-YAKRI[R5]YQLLSK[R5]L-OH; staple (E) 6-13)
- median survival (PDOX model of PDAC): prolonged median survival
- half-life in plasma [2]: prolonged the half-life in plasma
- organoid growth inhibition ([3]; PDAC with high USP10 and N1ICD expression levels): significant organoid growth inhibition
- inhibition effect ([3]; PDAC-1 and PDAC-3 models with relatively low USP10 and N1ICD expression levels): poor inhibition effect
- resistance to proteases (proteinase K, pepsin): significantly enhanced the resistance to proteases
- affinity for the ANK domain (ANK domain of N1ICD [4]): strongest binding ability; also recorded: highest affinity for ANK
- N1ICD deubiquitination (N1ICD; Capan1 cells): inhibited
- Notch signaling and N1ICD expression (N1ICD; Capan1 cells): inhibiting Notch signaling and its N1ICD expression in a time- and dose-dependent manner
- N1ICD stability (N1ICD; Capan1 cells after cycloheximide (CHX)): inhibited N1ICD stability
- USP10-N1ICD interaction (USP10-N1ICD interaction): inhibit USP10-N1ICD interaction
- morphology of major organs (HE staining) [5]: without affecting the liver, lungs, and kidneys and other major normal tissues and organs; also recorded: no morphological changes in major functional organs
- serum ALT, AST, BUN and creatinine [5]: no abnormalities in the main indicators of liver and kidney functions

- interaction with ANK1 (ANK1): readily interacted with ANK1
- Kd (ANK domain of N1ICD [6]): 60.4 nM
- affinity for the ANK domain (ANK domain of N1ICD [4]): higher affinity to the ANK domain
Compound: YAKRIFYQLLSKEL [AH2]

- Kd (ANK domain of N1ICD [1]): 60.4 nM
- affinity for the ANK domain (ANK domain of N1ICD [4]): comparable affinity for ANK
Compound: YAKRIFYQLLSKQL [mAH2, YAKRIFYQLLSKQL]
